ChEMBL document CHEMBL3991601, “The target landscape of clinical kinase drugs” (Science, 2017)
Calls of active or inactive are those of the source.

Columns and labels:
[1] = molecular target: RAC-alpha serine/threonine-protein kinase (Homo sapiens, UniProt P31749)
[2] = molecular target: G protein-coupled receptor kinase 6 (Homo sapiens, UniProt P43250)
[3] = molecular target: T1, Mitogen-activated protein kinase kinase kinase kinase 2 (Homo sapiens, UniProt Q12851)
T1 sequence (Q12851 whole entry): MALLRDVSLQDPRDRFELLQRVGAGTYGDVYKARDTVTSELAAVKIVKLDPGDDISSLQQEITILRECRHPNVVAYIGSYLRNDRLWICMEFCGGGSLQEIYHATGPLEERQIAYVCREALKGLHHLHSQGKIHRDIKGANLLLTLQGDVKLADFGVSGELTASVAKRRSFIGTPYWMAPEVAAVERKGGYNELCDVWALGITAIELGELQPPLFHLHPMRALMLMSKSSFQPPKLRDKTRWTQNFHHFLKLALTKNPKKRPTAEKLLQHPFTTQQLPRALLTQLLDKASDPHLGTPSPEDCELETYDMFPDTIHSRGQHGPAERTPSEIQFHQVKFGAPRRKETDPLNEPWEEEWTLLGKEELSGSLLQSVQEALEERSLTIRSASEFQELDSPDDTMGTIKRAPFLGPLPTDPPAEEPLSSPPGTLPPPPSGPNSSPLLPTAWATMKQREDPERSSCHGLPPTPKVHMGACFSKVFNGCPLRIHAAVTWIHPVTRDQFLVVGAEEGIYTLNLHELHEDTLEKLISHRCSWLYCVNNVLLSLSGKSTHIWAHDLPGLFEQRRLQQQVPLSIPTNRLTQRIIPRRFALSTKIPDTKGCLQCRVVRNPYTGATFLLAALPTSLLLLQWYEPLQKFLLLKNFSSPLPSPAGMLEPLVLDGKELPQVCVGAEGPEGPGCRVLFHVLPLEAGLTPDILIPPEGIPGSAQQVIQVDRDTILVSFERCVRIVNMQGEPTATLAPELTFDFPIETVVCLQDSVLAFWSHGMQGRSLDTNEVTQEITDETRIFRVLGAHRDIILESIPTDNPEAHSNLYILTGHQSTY

[4] = molecular target: MAP/microtubule affinity-regulating kinase 3 (Homo sapiens, UniProt P27448)
MAP/microtubule affinity-regulating kinase 3, sequence (P27448 whole entry): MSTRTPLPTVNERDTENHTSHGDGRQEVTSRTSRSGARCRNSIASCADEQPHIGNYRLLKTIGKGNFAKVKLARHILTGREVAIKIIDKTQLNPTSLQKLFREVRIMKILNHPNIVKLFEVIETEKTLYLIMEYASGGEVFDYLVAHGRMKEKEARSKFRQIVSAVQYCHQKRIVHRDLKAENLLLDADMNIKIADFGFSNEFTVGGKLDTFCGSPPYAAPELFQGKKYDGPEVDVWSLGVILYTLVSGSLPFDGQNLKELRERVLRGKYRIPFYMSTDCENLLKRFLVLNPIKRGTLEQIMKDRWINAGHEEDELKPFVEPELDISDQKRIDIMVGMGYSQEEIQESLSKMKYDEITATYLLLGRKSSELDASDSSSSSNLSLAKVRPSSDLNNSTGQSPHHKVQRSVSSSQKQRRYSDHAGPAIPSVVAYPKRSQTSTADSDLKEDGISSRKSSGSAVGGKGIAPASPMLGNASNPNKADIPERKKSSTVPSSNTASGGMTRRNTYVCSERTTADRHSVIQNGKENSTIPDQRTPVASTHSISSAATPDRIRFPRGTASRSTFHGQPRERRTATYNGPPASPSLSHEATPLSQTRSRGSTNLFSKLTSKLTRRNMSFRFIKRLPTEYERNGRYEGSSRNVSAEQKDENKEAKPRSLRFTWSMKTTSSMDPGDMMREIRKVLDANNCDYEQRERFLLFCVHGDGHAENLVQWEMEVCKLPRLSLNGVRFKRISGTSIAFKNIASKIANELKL

[5] = molecular target: T2, Ras-related protein Rab-10 (Homo sapiens, UniProt P61026)
T2 sequence (P61026 whole entry): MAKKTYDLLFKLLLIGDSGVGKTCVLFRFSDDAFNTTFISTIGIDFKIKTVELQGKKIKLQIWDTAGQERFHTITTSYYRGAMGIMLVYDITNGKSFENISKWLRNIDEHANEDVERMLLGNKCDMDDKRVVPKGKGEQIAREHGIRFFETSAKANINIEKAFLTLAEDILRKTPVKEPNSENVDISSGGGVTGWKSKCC

Rab-like protein 3 = molecular target: T3, Rab-like protein 3 (Homo sapiens, UniProt Q5HYI8)
T3 sequence (Q5HYI8 whole entry): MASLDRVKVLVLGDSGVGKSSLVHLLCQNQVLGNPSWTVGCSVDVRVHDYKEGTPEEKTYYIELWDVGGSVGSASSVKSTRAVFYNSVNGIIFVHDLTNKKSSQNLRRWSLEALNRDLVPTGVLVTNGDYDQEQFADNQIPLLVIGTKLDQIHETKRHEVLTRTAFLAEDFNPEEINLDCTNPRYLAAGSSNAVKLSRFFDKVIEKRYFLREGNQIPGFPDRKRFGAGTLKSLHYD

[6] = molecular target: Ribosomal protein S6 kinase alpha-1 (Homo sapiens, UniProt Q15418)
Ribosomal protein S6 kinase alpha-1, sequence (Q15418 whole entry): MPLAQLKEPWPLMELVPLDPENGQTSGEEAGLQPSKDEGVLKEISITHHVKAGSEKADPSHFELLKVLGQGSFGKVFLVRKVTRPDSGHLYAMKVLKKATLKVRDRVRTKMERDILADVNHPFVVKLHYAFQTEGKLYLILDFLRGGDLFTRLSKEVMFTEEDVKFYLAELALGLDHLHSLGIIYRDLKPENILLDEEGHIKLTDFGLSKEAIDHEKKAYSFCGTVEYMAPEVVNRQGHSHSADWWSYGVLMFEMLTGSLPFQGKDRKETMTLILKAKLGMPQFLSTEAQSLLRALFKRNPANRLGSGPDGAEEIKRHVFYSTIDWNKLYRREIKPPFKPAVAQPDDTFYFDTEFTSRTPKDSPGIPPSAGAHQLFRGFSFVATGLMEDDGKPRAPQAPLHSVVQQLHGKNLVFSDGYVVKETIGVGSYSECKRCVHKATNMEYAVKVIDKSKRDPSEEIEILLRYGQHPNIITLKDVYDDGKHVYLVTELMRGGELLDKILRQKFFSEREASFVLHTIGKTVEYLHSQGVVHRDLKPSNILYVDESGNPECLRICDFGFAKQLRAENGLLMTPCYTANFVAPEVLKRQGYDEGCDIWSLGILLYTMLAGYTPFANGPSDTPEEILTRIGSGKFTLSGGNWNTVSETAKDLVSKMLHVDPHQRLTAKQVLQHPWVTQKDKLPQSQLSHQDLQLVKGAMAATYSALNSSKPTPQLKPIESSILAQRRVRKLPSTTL

[7] = molecular target: T4, STE20-related kinase adapter protein alpha (Homo sapiens, UniProt Q7RTN6)
T4 sequence (Q7RTN6 whole entry): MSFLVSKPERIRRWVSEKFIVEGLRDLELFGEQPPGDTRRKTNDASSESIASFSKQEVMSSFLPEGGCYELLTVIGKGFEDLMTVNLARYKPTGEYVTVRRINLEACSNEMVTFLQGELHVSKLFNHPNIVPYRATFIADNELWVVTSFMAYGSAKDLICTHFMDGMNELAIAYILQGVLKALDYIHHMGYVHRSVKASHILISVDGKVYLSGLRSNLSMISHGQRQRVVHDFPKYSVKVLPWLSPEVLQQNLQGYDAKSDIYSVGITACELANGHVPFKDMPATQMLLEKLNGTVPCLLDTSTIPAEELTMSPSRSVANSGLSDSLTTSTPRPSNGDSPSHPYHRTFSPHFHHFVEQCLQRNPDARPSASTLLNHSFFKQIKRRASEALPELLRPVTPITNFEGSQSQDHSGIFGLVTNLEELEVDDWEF

[8] = molecular target: T5, Serine/threonine-protein kinase ULK1 (Homo sapiens, UniProt O75385)
T5 sequence (O75385 whole entry): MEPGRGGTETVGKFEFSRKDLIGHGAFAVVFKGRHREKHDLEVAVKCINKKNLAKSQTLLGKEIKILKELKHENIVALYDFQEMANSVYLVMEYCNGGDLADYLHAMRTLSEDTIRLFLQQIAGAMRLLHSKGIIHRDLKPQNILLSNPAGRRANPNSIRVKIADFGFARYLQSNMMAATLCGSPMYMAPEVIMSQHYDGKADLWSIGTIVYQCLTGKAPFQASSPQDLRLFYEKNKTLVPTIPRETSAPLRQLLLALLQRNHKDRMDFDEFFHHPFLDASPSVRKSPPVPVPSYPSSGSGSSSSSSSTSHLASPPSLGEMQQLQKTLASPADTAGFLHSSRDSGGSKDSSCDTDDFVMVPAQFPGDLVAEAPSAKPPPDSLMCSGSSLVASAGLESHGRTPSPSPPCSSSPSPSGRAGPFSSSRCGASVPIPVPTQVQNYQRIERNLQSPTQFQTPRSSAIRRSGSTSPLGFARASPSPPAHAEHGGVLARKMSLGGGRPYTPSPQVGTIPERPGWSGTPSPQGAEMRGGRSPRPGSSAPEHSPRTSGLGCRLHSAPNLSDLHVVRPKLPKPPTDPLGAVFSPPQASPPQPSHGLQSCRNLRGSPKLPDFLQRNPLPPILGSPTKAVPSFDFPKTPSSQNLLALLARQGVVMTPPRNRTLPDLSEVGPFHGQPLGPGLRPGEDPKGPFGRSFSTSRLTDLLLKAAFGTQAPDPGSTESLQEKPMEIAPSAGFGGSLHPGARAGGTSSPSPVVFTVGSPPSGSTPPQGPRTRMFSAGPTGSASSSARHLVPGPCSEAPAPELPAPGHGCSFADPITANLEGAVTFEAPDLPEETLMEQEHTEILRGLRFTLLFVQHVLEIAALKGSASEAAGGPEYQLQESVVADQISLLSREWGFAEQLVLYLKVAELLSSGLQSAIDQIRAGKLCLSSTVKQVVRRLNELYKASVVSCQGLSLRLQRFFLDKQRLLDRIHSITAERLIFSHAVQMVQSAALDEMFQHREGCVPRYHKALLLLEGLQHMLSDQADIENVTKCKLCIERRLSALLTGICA
Note: in the data inactive means no Kd found up to 30 µM.

G protein-coupled receptor kinase 6, sequence (P43250 whole entry): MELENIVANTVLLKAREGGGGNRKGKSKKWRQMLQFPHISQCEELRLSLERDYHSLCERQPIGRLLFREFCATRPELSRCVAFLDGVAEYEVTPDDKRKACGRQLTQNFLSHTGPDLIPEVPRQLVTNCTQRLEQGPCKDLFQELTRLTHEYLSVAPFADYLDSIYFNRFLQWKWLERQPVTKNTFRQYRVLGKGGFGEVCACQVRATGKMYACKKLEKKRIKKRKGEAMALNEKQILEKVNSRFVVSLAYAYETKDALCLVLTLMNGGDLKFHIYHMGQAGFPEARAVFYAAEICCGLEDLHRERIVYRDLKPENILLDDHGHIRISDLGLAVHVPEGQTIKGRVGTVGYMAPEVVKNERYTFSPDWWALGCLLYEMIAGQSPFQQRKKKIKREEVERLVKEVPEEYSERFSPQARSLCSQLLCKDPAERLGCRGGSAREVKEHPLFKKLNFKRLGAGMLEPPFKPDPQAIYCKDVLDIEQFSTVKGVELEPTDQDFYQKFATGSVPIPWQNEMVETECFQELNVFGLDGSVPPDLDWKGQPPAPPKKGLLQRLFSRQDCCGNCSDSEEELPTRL
RAC-alpha serine/threonine-protein kinase, sequence (P31749 whole entry): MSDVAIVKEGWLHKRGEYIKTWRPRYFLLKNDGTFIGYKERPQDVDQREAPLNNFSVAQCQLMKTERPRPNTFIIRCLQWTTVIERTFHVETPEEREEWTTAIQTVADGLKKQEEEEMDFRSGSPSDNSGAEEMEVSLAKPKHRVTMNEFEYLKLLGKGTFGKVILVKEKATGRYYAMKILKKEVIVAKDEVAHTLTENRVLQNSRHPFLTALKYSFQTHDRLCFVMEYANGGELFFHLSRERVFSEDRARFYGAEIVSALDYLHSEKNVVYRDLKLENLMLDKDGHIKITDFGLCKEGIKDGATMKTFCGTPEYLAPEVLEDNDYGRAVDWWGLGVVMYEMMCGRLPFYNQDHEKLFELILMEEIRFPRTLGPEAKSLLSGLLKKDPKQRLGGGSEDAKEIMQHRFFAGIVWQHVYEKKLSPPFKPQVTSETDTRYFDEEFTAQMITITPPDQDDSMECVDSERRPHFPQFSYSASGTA

SMILES | Kd [1] | Kd [2] | Kd [3] | Kd [4] | Kd [5] | Kd (Rab-like protein 3) | Kd [6] | Kd [7] | Kd [8]
Cn1cc(-c2cnc3ccc4ccc(CS(=O)(=O)NCc5ccccn5)cc4c(=O)c3c2)cn1 [MK-8033] | > 30 µM (inactive) | > 30 µM (inactive) | > 30 µM (inactive) | > 30 µM (inactive) | > 30 µM (inactive) | > 30 µM (inactive) | > 30 µM (inactive) | > 30 µM (inactive) | > 30 µM (inactive)
CN1C/C=C/CCOc2cccc(c2)-c2ccnc(n2)Nc2cccc(c2)C1 [ZOTIRACICLIB] | > 30 µM (inactive) | > 30 µM (inactive) | 1.36 µM (active) | > 30 µM (inactive) | > 30 µM (inactive) | > 30 µM (inactive) | > 30 µM (inactive) | > 30 µM (inactive) | > 30 µM (inactive)
Cc1cc(Nc2ncc(Cl)c(Nc3ccccc3S(=O)(=O)C(C)C)n2)c(OC(C)C)cc1C1CCNCC1 [CERITINIB] | > 30 µM (inactive) | > 30 µM (inactive) | > 30 µM (inactive) | > 30 µM (inactive) | > 30 µM (inactive) | > 30 µM (inactive) | 21.4 µM (active) | > 30 µM (inactive) | > 30 µM (inactive)
C[C@@H](N)c1ccc(C(=O)Nc2ccnc3[nH]ccc23)cc1 [Y-39983] | > 30 µM (inactive) | > 30 µM (inactive) | > 30 µM (inactive) | 38.5 µM (active) | > 30 µM (inactive) | > 30 µM (inactive) | > 30 µM (inactive) | > 30 µM (inactive) | > 30 µM (inactive)
N#CC1(c2ccc(NC(=O)c3cccnc3NCc3ccncc3)cc2)CCCC1 [RIVOCERANIB] | > 30 µM (inactive) | > 30 µM (inactive) | > 30 µM (inactive) | > 30 µM (inactive) | > 30 µM (inactive) | > 30 µM (inactive) | > 30 µM (inactive) | > 30 µM (inactive) | > 30 µM (inactive)
CCNC(=O)C#Cc1ccc2c(c1)NC(=O)/C2=C(\Nc1ccc(CN(C)C)cc1)c1ccccc1 | > 30 µM (inactive) | > 30 µM (inactive) | > 30 µM (inactive) | > 30 µM (inactive) | > 30 µM (inactive) | > 30 µM (inactive) | 0.799 µM (active) | > 30 µM (inactive) | > 30 µM (inactive)
CC(C)c1cc(CNc2nc(Nc3cc(C4CC4)[nH]n3)cc(N3CCN(C)CC3)n2)on1 [XL-228] | > 30 µM (inactive) | > 30 µM (inactive) | 0.352 µM (active) | 0.133 µM (active) | > 30 µM (inactive) | > 30 µM (inactive) | > 30 µM (inactive) | > 30 µM (inactive) | > 30 µM (inactive)
O=C(Nc1cc(C(F)(F)F)cc(C(F)(F)F)c1)c1cc(Cl)ccc1O [IMD-0354] | > 30 µM (inactive) | > 30 µM (inactive) | > 30 µM (inactive) | > 30 µM (inactive) |  | > 30 µM (inactive) | > 30 µM (inactive) | > 30 µM (inactive) | > 30 µM (inactive)
Cc1cc(Nc2ncnc3ccc(NC4=NC(C)(C)CO4)cc23)ccc1Oc1ccn2ncnc2c1 [TUCATINIB] | > 30 µM (inactive) | > 30 µM (inactive) | > 30 µM (inactive) | > 30 µM (inactive) | > 30 µM (inactive) | > 30 µM (inactive) | > 30 µM (inactive) | > 30 µM (inactive) | > 30 µM (inactive)
O=C(Cc1ccc(-c2ccc(OCCN3CCOCC3)cc2)cn1)NCc1ccccc1 [TIRBANIBULIN] | > 30 µM (inactive) | > 30 µM (inactive) | > 30 µM (inactive) | > 30 µM (inactive) | > 30 µM (inactive) | > 30 µM (inactive) | > 30 µM (inactive) | > 30 µM (inactive) | > 30 µM (inactive)
COc1cc2ncnc(Oc3cccc(NC(=O)Nc4cc(C(C)(C)C(F)(F)F)on4)c3)c2cc1OC [CEP-32496] | > 30 µM (inactive) | > 30 µM (inactive) | 2.82 µM (active) | > 30 µM (inactive) | > 30 µM (inactive) | > 30 µM (inactive) | > 30 µM (inactive) | > 30 µM (inactive) | > 30 µM (inactive)
C#Cc1cccc(Nc2ncnc3cc(OC)c(OCCCCCCC(=O)NO)cc23)c1 [CUDC-101] | > 30 µM (inactive) | > 30 µM (inactive) | > 30 µM (inactive) | > 30 µM (inactive) | > 30 µM (inactive) | > 30 µM (inactive) | > 30 µM (inactive) | > 30 µM (inactive) | > 30 µM (inactive)
Cc1nc2cc(-c3nn(C(C)C)c4ncnc(N)c34)ccc2o1 | > 30 µM (inactive) | > 30 µM (inactive) | 15.9 µM (active) | > 30 µM (inactive) | > 30 µM (inactive) | > 30 µM (inactive) | > 30 µM (inactive) | > 30 µM (inactive) | > 30 µM (inactive)
O=C1NC(=O)[C@@H](c2cn3c4c(cccc24)CCC3)[C@@H]1c1c[nH]c2ccccc12 [TIVANTINIB] | > 30 µM (inactive) | > 30 µM (inactive) | > 30 µM (inactive) | > 30 µM (inactive) | > 30 µM (inactive) | > 30 µM (inactive) | > 30 µM (inactive) | > 30 µM (inactive) | > 30 µM (inactive)
